Measured values: patent US11998602B2, “Methods for promoting myelination and for treating demyelinating diseases” (The Scripps Research Institute, priority 2018, dated 2024)

Assays:
[1] = system: Rat primary optic nerve OPCs; test: High content imaging assay of OPC differentiation (MBP, A2B5, DAPI cell counts); assay type: cell-based
Procedure: Rat primary optic nerve OPCs were isolated by panning (>99% A2B5^+) and cultured in poly-D-lysine (10 μg/ml)-coated TC dishes in OPC culture media (Neurobasal Media, Invitrogen) supplemented with B27-without vitamin A (Invitrogen), 1× non-essential amino acids, 1× Glutamax, 1× anti-anti, β-mercaptoethanol and PDGF-AA (50 ng/ml; Peprotech) at 37° C. with 5% CO2. The culture medium was replaced every 48 h and cells were collected before the confluency reached 60% to maintain a naive state. For differentiation, OPCs were plated at 1 million cells in one 10 cm petri-dish filled with differentiation media, which is identical to the culture media, but with PDGF-AA at 2 ng/ml. T3 and DMSO were used as the positive control and negative control, respectively. Five replicates of cells were collected at different times (0, 3, and 6 days) for metabolomics studies. High content imaging. For dose-response co-treatment experiments, black, clear-bottom 384-well plates (Greiner) were coated with poly-D-lysine (10 μg ml^−1 in PBS). miconazole and benztropine were added at 8 doses in differentiation media; 3-fold dilutions down from 10 μM. taurine was then added at 8 concentrations; 3-fold dilutions down from 20 mM. This 384-well format was also utilized for experiments combining benztropine (0.5 μM), miconazole (2 μM) or T3 (1 μM) with propargylglycine (0.1, 3, 10, 30 μM), reduced glutathione (1, 10, 30, 100 μM) or ascorbic acid ([…]). OPCs were then seeded at a density of 1,000 cells per well, and the plates were incubated at 37° C. with 5% CO2 for 6 days. For time course experiments, cells were seeded at a density of 5,000 cells per well in poly-D-lysine-coated 96-well plates. Cells were treated with DMSO (0.1%), benztropine (0.5 μM), miconazole (2 μM) or T3 (1 μM) on day 0, and taurine (20 mM) was added in combination at 0, 1 or 3 days post-drug treatment. The plates were incubated at 37° C. with 5% CO2 for 6 days. On day 6, cells were then fixed for 20 min with 4% formaldehyde solution and stained with mouse anti-Myelin Basic Protein (MBP) antibody (MAB382, Millipore) or anti-A2B5 antibody (MAB312, Millipore) in 3% BSA, 0.3% Triton X-100 with overnight incubation at 4° C. The cells were washed and incubated with secondary antibody (goat anti-mouse Alexa Fluor488) and DAPI (Invitrogen) for 1 h at room temperature. The cells were washed and plates were sealed and imaged using an Opera confocal imaging reader (Perkin Elmer) or a Cellomics Cell Insight imaging reader (Thermo). An air ×10 lens was used to capture 9 images per well at both wavelengths (488 and 365 nm), with each image representing a different unique locations field in a single well. For image analysis, DAPI-stained nuclei and MBP-positive or A2B5-positive cell bodies were detected using an algorithm that selects for positive cell bodies and nuclei within a range of fluorescent emission values and sizes as determined by fitting parameters to positive (T3, 1 μM) and negative controls (DMSO, 0.1%). The numbers of DAPI-positive objects were enumerated in experiments where cell counts were required. Numerical results from the analyzed images were later exported for analysis using Excel (Microsoft) and/or Genedata software.

[2] = system: Rat primary optic nerve OPCs; test: In vitro OPC differentiation assay, MBP expression by Western blot; assay type: cell-based; conditions: for Observed maximal in vitro efficacy of OPC differentiation compared to T3: drug alone; for Effect of supplementation on drug-induced OPC differentiation: added to drug-induced differentiation conditions
Procedure: Rat primary optic nerve OPCs were isolated by panning (>99% A2B5^+) and cultured in poly-D-lysine (10 μg/ml)-coated TC dishes in OPC culture media (Neurobasal Media, Invitrogen) supplemented with B27-without vitamin A (Invitrogen), 1× non-essential amino acids, 1× Glutamax, 1× anti-anti, β-mercaptoethanol and PDGF-AA (50 ng/ml; Peprotech) at 37° C. with 5% CO2. The culture medium was replaced every 48 h and cells were collected before the confluency reached 60% to maintain a naive state. For differentiation, OPCs were plated at 1 million cells in one 10 cm petri-dish filled with differentiation media, which is identical to the culture media, but with PDGF-AA at 2 ng/ml. T3 and DMSO were used as the positive control and negative control, respectively. Five replicates of cells were collected at different times (0, 3, and 6 days) for metabolomics studies.
Western blot analysis. OPCs were plated in basal differentiation medium at 1.7×10^5 cells/well and treated for 6 days with benztropine (0.5 μM), miconazole (2 μM) with and without the tested endogenous metabolites, T3 (1 μM) or DMSO. After washing with PBS, cells were collected in ice cold RIPA buffer containing protease and phosphatase inhibitors. Following incubation on ice for >20 min and sonication, lysed cells were centrifuged (16,000 g, 15 min at 4° C.). Total protein was quantified using a BCA analysis and 25 μg of protein from each sample was denatured by boiling with Bolt LDS Sample Buffer (4×) and Sample Reducing Agent (10×). Proteins were electrophoresed using Bolt 4-12% Bis-Tris gels (Life Technologies) and transferred to a PVDF membrane (Bio-Rad). The membrane was blocked with Odyssey PBS Blocking Buffer (LI-COR) and incubated overnight at 4° C. with anti-MBP (mouse, 1:2000) and anti-actin (mouse, 1:5000). Blots were incubated with […] secondary donkey anti-mouse antibody (LI-COR, 1:7500) and imaged using Odyssey CLx and Image Studio (LI-COR).

[3] = system: primary mouse cortical neurons co-cultured with OPCs; test: In vitro OL maturation assay, MBP-colocalization with co-cultured axons; assay type: cell-based, rat; conditions: 0.5 μM benztropine, 1.0 μM miconazole or 2 mM taurine alone, 14 days
Procedure: In vitro OL maturation assay. Cortical and hippocampal tissue was dissected from C57BL/6 mice at embryonic day 14 and dissociated in 0.5% Trypsin with 100 U/mL DNase I diluted in HBSS (+/+) for 10 min at 37° C. Reaction was stopped by supplementing to a final concentration of 10% v/v FBS, 100 μg/mL Soybean Trypsin Inhibitor and 10 U/mL DNase I. Cells were resuspended in plating media consisting of equal volumes of FCS, HBSS (+/+), High-Glucose DMEM with L-glutamine, and F-12 with L-glutamine, then plated onto acid pre-washed German glass coverslips coated with 50 μg/mL Poly-D-Lysine and 20 μg/mL Laminin at a density of 50,000 cells/cm^2. Cells were allowed to attach for 2 hrs and then coverslips were rinsed with PBS before being transferred to a 24-well plate containing 0.5 mL growth media consisting of: Neurobasal medium, B27 supplement (Gibco), 0.5× Glutamax (Thermo), 5 μg/mL gentamycin and 5 μM glutamic acid. Half of the cell media was replaced after 3 DIV with supplemental growth media not containing glutamic acid^47. After 5 DIV, rat-derived cortical OPCs were added to the neuronal culture at a density of 5,000 cells/cm^2. Co-culture media used to resuspend and plate OPCs consisting of a 1:3 mixture of neuronal growth supplement (as above) and oligodendrocyte differentiation media, containing DMEM/F-12 (with L-glutamine), insulin-free N2 supplement, 1× Glutamax, 1×MEM non-essential amino acids, 1× β-mercaptoethanol, 2 ng/mL PDGF and 5 μg/mL gentamycin. All drugs and taurine co-treatment were added once to culture upon plating of OPCs at the following concentrations: 0.5 μM benztropine, 1.0 μM miconazole, each with or without 2 mM taurine. Cultures were maintained by replacing half of the media every three days, maintaining an equivalent concentration of taurine throughout in appropriate wells. […] Co-localization was quantified within regions of interest delineated as the periphery of individual oligodendrocytes. The co-localization index (adapted from a previously described method^48) was calculated as total proportion of co-localized 3D surface area between Tuj1 (neuron) and oligodendrocyte (MBP) over total Tuj1 (neuronal process) area enclosed within each oligodendrocyte process tree as the selected region of interest (ROI, see FIG. 3B″). Mean colocalization values for each condition were normalized to the DMSO condition mean analyzed statistically using Prism software (GraphPad, v7) for two-way ANOVA comparisons (Drug Treatment×Taurine Supplement) with Tukey post-tests for statistical significance. […]

OPCs = test: Mitochondrial respiration assay (oxygen consumption rate, XFe96 Seahorse); assay type: cell-based, rat; conditions: miconazole treatment alone
Procedure: Mitochondrial respiration assay. Cellular oxygen consumption rate (OCR) was measured using an XFe96 extracellular flux analyzer (Seahorse Biosciences). OPCs were seeded at 40,000 cells/well in PLP-coated XFe96 plates and cultured for 6 days with taurine (2 and 20 mM) alone, or together with miconazole and benztropine. Cells were then incubated in assay medium (DMEM with 20 mM glucose, 5 mM pyruvate and 5 mM sodium bicarbonate, pH˜7.4) for at least 30 min prior to the assay. Media to deliver a final assay well concentration corresponding to of 1 μM oligomycin, 2 μM carbonyl cyanide 4-(trifluoromethoxy) phenylhydrazone (FCCP) and 2 μM rotenone+2 μM antimycin A were pre-loaded into the compound delivery ports of the system. The assay starts with the recording of the basal OCR, followed by recording of the OCR in response to different compounds that constitute the Mitochondria Stress Test (Seahorse Biosciences, Agilent). Once the basal OCR was measured, the compounds were added sequentially and the effects on OCR measured 3 times every 5 min. Oligomycin blocks ATP synthase; FCCP dissipates the inner membrane potential enabling maximum electron flux through the electron transport chain (ETC); rotenone+antimycin A inhibit complexes I and III, respectively, thereby blocking the entry of electrons in the ETC and shutting down mitochondrial activity.

Compound: C#CCC(N)C(=O)O (stereo not shown) [PPG, propargylglycine]
- Impact on differentiation efficiency under basal vehicle treated conditions ([1]; PPG): virtually no impact
- Observed efficacy of drug-induced differentiation ([1]; PPG 10 μM added at day 0 or day 3, all drug-induced conditions): significantly enhance
- Overall cell number with T3 treatment ([1]; PPG 10 μM, T3 1 μM): enhance
- Impact on overall survival in OPC cultures ([1]; PPG, DMSO, benztropine (0.5 μM) or miconazole (2 μM)): not found to impact

Compound: CN1[C@@H]2CC[C@H]1C[C@@H](OC(c1ccccc1)c1ccccc1)C2 [benztropine, reference compound]
- Observed maximal in vitro efficacy of OPC differentiation compared to T3 [2]: suboptimal
- MBP-colocalization with axons, treatment alone vs. DMSO (Tukey post hoc) [3]: significant

Compound: CN(CC(=O)O)C(=N)N [creatine]
- Effect of supplementation on drug-induced OPC differentiation [2]: some additive effects

Compound: reduced glutathione
- Differentiation efficiency (MBP-positive OLs) under basal conditions ([1]; 10 μM GSH, DMSO, day 6): no significant effect
- Observed total nuclei count in T3-induced differentiation ([1]; 10 μM GSH, T3 (1 μM), day 6): significantly enhance
- Overall efficiency of T3-induced differentiation ([1]; 10 μM GSH, T3 (1 μM), day 6): significantly enhance
- Impact on total cell number in benztropine- or miconazole-induced differentiation ([1]; reduced glutathione): not found to be significant
- Overall efficiency of benztropine- or miconazole-induced differentiation ([1]; reduced glutathione, lesser extent than following taurine addition): enhance

Compound: Clc1ccc(COC(Cn2ccnc2)c2ccc(Cl)cc2Cl)c(Cl)c1 (stereo not shown) [miconazole, reference compound]
- Observed maximal in vitro efficacy of OPC differentiation compared to T3 [2]: suboptimal
- MBP-colocalization with axons, treatment alone vs. DMSO (Tukey post hoc) [3]: no significant difference
- Impact on OCR values compared to DMSO or benztropine treatment (OPCs): negative impact

Compound: CN(CC(=O)O)C(=N)NP(=O)(O)O [PCr, phosphocreatine]
- Effect of supplementation on drug-induced OPC differentiation [2]: some additive effects
